In patent US20240317734A1, “BI-FUNCTIONAL COMPOUNDS AND METHODS FOR TARGETED UBIQUITINATION OF ANDROGEN RECEPTOR” (MONTELINO THERAPEUTICS, INC., priority 2021, published 2024) one finds IC50 data, which are given here for four molecules.

Bounds are passed on as bounds.

This experiment concerns 22Rv1-Enz^R. Description: 22Rv1-Enz^R cell proliferation assay. The class given is cell-based. The conditions noted are these: human prostate cancer cell line 22Rv1-Enz^R; 6-day culture, cell media changed every 24 hours; half maximal growth inhibition constant; read-out: 22Rv1-Enz^R proliferation assay GIC50. As for the experimental part: The human prostate cancer cell line, 22Rv1 has been reported to express a high level of AR-V7. According to one procedure, 22Rv1 is seeded at 50,000 cells/well on a 24-well plate in quadruplicate and treated with test compounds in concentrations ranging up to 20 μM for four days. Standard culture media is RPMI-1640 supplemented with 10% fetal bovine serum. The test compound initially is dissolved in DMSO at 50 mM. This stock solution is then diluted as needed for the indicated concentrations. At the end of the four-day period, cells are harvested using 1% trypsin and counted using an automated cell counter.
Cell Culture. Human CaP cell lines, LNCaP, 22Rv1, VCaP, PC3, and DU145 are obtained from the American Type Culture Collection (ATCC) and maintained in the standard culture media: RPMI-1640 supplemented with 10% fetal bovine serum (FBS). LNCaP, 22Rv1, and VCaP are androgen-responsive cell lines, while PC3 and DU145 are not. To establish SAT resistant CaP cell lines, LNCaP, 22Rv1, and VCaP are treated continuously with 10-50 μM abiraterone, apalutamide, darolutamide, or enzalutamide. After 3-6 months, stable cell lines are established and designated as LNCaP-Abi^R, LNCaP-Apa^R, LNCap-Daro^R, LNcaP-Enz^R, VcaP-Abi^R, VCaP-Apa^R, VCaP-Daro^R, VCaP-Enz^R, 22Rv1-Abi^R, 22Rv1-Apa^R, 22Rv1-Daro^R, and 22Rv1-Enz^R. Unless otherwise specified, the standard culture media for these SAT-resistant cell lines included 10 μM of their respective SAT. For the proteasome inhibitor study, the inhibitors MG132 and Epoxomicin are used. The E3 ligase inhibitors Heclin, Nutlin 3a, Thalidomide, and VH298 are used. Cell lines obtained from ATCC are confirmed by checking their morphology using optical microscopy, establishing baselines for cell proliferation, verifying species of origin using isoenzymology, and characterizing the cell's DNA fingerprint using short tandem repeat (STR) profiling. Mycoplasma contamination is also assessed using a PCR based detection system.
Selected compounds may be tested in the human prostate cancer cell line, 22Rv1-Enz^R, as described in Geun Tack Lee et al., Molecular Cancer Therapeutics, 20:490-9 (2021). These procedures are similar to that described in Experimental Example 1, above, except that the assay conditions are a 6-day culture with cell media changed every 24 hours.
Turning to `O=C(COc1c(-c2csc(N3CCOCC3)n2)ccc(F)c1F)NCCCCNc1ccc2nnn(C3CCC(=O)NC3=O)c(=O)c2c1` (stereo not shown) [Example 1, 2-(2,3-difluoro-6-(2-morpholinothiazol-4-yl)phenoxy)-N-(4-((3-(2,6-dioxopiperidin-3-yl)-4-oxo-3,4-dihydrobenzo[d][1,2,3]triazin-6-yl)amino)butyl)acetamide], the IC50 was below 100 µM.

`O=C(COc1c(-c2csc(N3CCOCC3)n2)ccc(F)c1F)NCCCCCCNc1ccc2nnn(C3CCC(=O)NC3=O)c(=O)c2c1` (stereo not shown) [Example 2, 2-(2,3-difluoro-6-(2-morpholinothiazol-4-yl)phenoxy)-N-(6-((3-(2,6-dioxopiperidin-3-yl)-4-oxo-3,4-dihydrobenzo[d][1,2,3]triazin-6-yl)amino)hexyl)acetamide]: the IC50 was below 10 µM.

On to `O=C1CCC(n2nnc3ccc(NCCOCCOCCOc4c(-c5csc(N6CCOCC6)n5)ccc(F)c4F)cc3c2=O)C(=O)N1` (stereo not shown) [Example 3, 3-(6-((2-(2-(2-(2,3-difluoro-6-(2-morpholinothiazol-4-yl)phenoxy)ethoxy)ethoxy)ethyl)amino)-4-oxobenzo[d][1,2,3]triazin-3(4H)-yl)piperidine-2,6-dione], for which the IC50 was below 100 µM.

As to `O=C(COc1c(-c2csc(N3CCOCC3)n2)ccc(F)c1F)NCCCCCCCCCCNc1ccc2nnn(C3CCC(=O)NC3=O)c(=O)c2c1` (stereo not shown) [Example 4, 2-(2,3-difluoro-6-(2-morpholinothiazol-4-yl)phenoxy)-N-(10-((3-(2,6-dioxopiperidin-3-yl)-4-oxo-3,4-dihydrobenzo[d][1,2,3]triazin-6-yl)amino)decyl)acetamide], the IC50 was below 10 µM.
